Experimental findings from ChEMBL document CHEMBL1909559, “Design, synthesis, and biological evaluation of benzodiazepine-based SUMO-specific protease 1 inhibitors” (Bioorg Med Chem Lett, 2011) are described below.

Bounds are passed on as bounds.

Usually IC50 stands for the concentration that inhibits the measured activity by half. Higher therefore signals weaker potency.

One experiment deals with PC-3. The experiment can be described thus: Cytotoxicity against human PC3 cells.
In turn, `O=CCN1C(=O)C(NC(=O)c2cccc(NC(=O)OCc3ccccc3)c2)N=C(c2ccccc2)c2ccccc21` (stereo not drawn) displayed a concentration for half-maximal inhibition (IC50) of 35.7 µM. For `O=CCN1C(=O)C(NC(=O)c2ccc(NC(=O)OCc3ccccc3)cc2)N=C(c2ccccc2)c2ccccc21` (stereo not drawn), it took 13 µM to reach half-maximal inhibition (IC50).

The target of a further experiment is T1, Sentrin-specific protease 1 (Homo sapiens, UniProt Q9P0U3).
T1 sequence (Q9P0U3 whole entry): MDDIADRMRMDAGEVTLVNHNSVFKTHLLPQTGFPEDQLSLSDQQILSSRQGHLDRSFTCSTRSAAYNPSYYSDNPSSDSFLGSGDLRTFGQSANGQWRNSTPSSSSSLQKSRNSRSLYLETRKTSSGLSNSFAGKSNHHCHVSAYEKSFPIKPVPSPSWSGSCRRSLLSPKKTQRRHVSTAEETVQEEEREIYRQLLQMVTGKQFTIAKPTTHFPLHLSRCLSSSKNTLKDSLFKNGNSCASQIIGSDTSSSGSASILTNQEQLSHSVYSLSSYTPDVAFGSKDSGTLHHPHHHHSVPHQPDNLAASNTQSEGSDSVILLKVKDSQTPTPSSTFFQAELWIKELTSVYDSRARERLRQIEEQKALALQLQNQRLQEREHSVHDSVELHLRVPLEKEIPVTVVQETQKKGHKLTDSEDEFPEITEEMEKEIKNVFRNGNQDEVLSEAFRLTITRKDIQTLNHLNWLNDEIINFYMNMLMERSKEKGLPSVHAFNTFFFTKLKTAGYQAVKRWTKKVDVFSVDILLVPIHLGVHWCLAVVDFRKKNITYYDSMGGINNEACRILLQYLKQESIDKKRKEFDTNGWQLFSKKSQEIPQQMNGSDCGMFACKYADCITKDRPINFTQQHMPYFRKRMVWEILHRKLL
The experiment can be described thus: Inhibition of histidine-tagged human SENP1 catalytic domain preincubated for 10 mins by SUMO-CHOP-PLA2 reporter fluorescence assay.
As for `CC(C)(C)OC(=O)Nc1cccc(C(=O)NC2N=C(c3ccccc3)c3ccccc3N(CC=O)C2=O)c1` (stereo not drawn), the IC50 was more than 100 µM.

For the compound `O=CCN1C(=O)C(NC(=O)OCc2ccccc2)N=Cc2ccccc21` (stereo not drawn), the IC50 is more than 100 µM. The same measure, in the same setting: to `CC(=O)Nc1cccc(C(=O)NC2N=C(c3ccccc3)c3ccccc3N(CC=O)C2=O)c1` (stereo not drawn) belongs more than 100 µM; to `O=CCCN1C(=O)C(NC(=O)OCc2ccccc2)N=C(c2ccccc2)c2ccccc21` (stereo not drawn), more than 100 µM; to `CC(C)(C)OC(=O)Nc1ccc(C(=O)NC2N=C(c3ccccc3)c3ccccc3N(CC=O)C2=O)cc1` (stereo not drawn), more than 100 µM. The same measure, in the same setting: to `O=C(NC1N=C(c2ccccc2)c2ccccc2N(CCO)C1=O)OCc1ccccc1` (stereo not drawn) belongs more than 100 µM.
